In PubChem BioAssay (NCI):
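Briefly, cells in 96-well plates were exposed to five compound concentrations for 48 h, and endpoints were estimated by linear interpolation. Here, GI50 denotes the concentration required for 50% inhibition of growth. Definition used: TGI = concentration required for complete inhibition of growth.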

Tested on: SN12C renal
Experiment: inhibition of tumour cell growth, NCI panel, 48 h

| SMILES | GI50 | TGI [µM] |
| --- | --- | --- |
| Cn1cnnc1[S-].[Au+].c1ccc([PH+](c2ccccc2)c2ccccc2)cc1 | 1.7 µM | 3.12 |
| Nc1nccc2c([N+](=O)[O-])cccc12 | 92.9 mg/L | – |
| CCc1ccc2c(c1)N(CCO)C1=C(C(=O)OC1)C2c1cc(OC)c(OC)c(OC)c1 (stereo unspecified) | 0.345 µM | > 50 |
| Cc1ccc(C2CC(c3ccc(Nc4ccnc5cc(Cl)ccc45)cc3)=NN2C=O)cc1 (stereo unspecified) | 7.23 µM | > 100 |
| COCC(C(=O)OC1C/C=C/C=C/C(=O)OC(C(C)C(O)C(C)CCC(OC(=O)C(C)N(C)C)C(C)C(OC(C)=O)C(C)/C=C/N(C)C=O)C/C=C/C(OC)CC(C)C/C=C(\C)C(OC)CCC(C)C(O)C1C)N(C)C (stereo unspecified) | < 0.0001 µM | 0.105 |

Tested on: K-562 leukemia
Experiment: inhibition of tumour cell growth, NCI panel, 48 h

| SMILES | GI50 [µM] | TGI [µM] |
| --- | --- | --- |
| CCc1ccc2c(c1)N(CCO)C1=C(C(=O)OC1)C2c1cc(OC)c(OC)c(OC)c1 (stereo unspecified) | 0.176 | > 30.4 |
| COCC(C(=O)OC1C/C=C/C=C/C(=O)OC(C(C)C(O)C(C)CCC(OC(=O)C(C)N(C)C)C(C)C(OC(C)=O)C(C)/C=C/N(C)C=O)C/C=C/C(OC)CC(C)C/C=C(\C)C(OC)CCC(C)C(O)C1C)N(C)C (stereo unspecified) | < 0.0001 | 0.116 |

Tested on: NCI-H23 lung
Experiment: inhibition of tumour cell growth, NCI panel, 48 h

| SMILES | GI50 [µM] | TGI [µM] |
| --- | --- | --- |
| CCc1ccc2c(c1)N(CCO)C1=C(C(=O)OC1)C2c1cc(OC)c(OC)c(OC)c1 (stereo unspecified) | 0.219 | > 14.4 |
| Cc1ccc(C2CC(c3ccc(Nc4ccnc5cc(Cl)ccc45)cc3)=NN2C=O)cc1 (stereo unspecified) | 6.93 | > 100 |
| COCC(C(=O)OC1C/C=C/C=C/C(=O)OC(C(C)C(O)C(C)CCC(OC(=O)C(C)N(C)C)C(C)C(OC(C)=O)C(C)/C=C/N(C)C=O)C/C=C/C(OC)CC(C)C/C=C(\C)C(OC)CCC(C)C(O)C1C)N(C)C (stereo unspecified) | < 0.0001 | > 0.666 |
| CC(C)Cc1ccc(C(C)C(=O)O)cc1 (stereo unspecified) | – | > 100 |

Tested on: HT29 colon
Experiment: inhibition of tumour cell growth, NCI panel, 48 h

| SMILES | GI50 [µM] | TGI [µM] |
| --- | --- | --- |
| CCc1ccc2c(c1)N(CCO)C1=C(C(=O)OC1)C2c1cc(OC)c(OC)c(OC)c1 (stereo unspecified) | 0.143 | 0.447 |
| Cc1ccc(C2CC(c3ccc(Nc4ccnc5cc(Cl)ccc45)cc3)=NN2C=O)cc1 (stereo unspecified) | 6.09 | > 100 |

Tested on: UACC-257 melanoma
Experiment: inhibition of tumour cell growth, NCI panel, 48 h

| SMILES | GI50 [µM] | TGI [µM] |
| --- | --- | --- |
| Cn1cnnc1[S-].[Au+].c1ccc([PH+](c2ccccc2)c2ccccc2)cc1 | 1.35 | 2.94 |
| CCc1ccc2c(c1)N(CCO)C1=C(C(=O)OC1)C2c1cc(OC)c(OC)c(OC)c1 (stereo unspecified) | 0.197 | > 50 |
| Cc1ccc(C2CC(c3ccc(Nc4ccnc5cc(Cl)ccc45)cc3)=NN2C=O)cc1 (stereo unspecified) | > 100 | > 100 |
| COCC(C(=O)OC1C/C=C/C=C/C(=O)OC(C(C)C(O)C(C)CCC(OC(=O)C(C)N(C)C)C(C)C(OC(C)=O)C(C)/C=C/N(C)C=O)C/C=C/C(OC)CC(C)C/C=C(\C)C(OC)CCC(C)C(O)C1C)N(C)C (stereo unspecified) | < 0.0001 | > 1 |

Tested on: SF-268 CNS
Experiment: inhibition of tumour cell growth, NCI panel, 48 h

| SMILES | GI50 [µM] | TGI [µM] |
| --- | --- | --- |
| Cn1cnnc1[S-].[Au+].c1ccc([PH+](c2ccccc2)c2ccccc2)cc1 | 1.7 | 3.44 |
| CCc1ccc2c(c1)N(CCO)C1=C(C(=O)OC1)C2c1cc(OC)c(OC)c(OC)c1 (stereo unspecified) | 0.3 | > 19.8 |
| Cc1ccc(C2CC(c3ccc(Nc4ccnc5cc(Cl)ccc45)cc3)=NN2C=O)cc1 (stereo unspecified) | 8.61 | > 100 |
| COCC(C(=O)OC1C/C=C/C=C/C(=O)OC(C(C)C(O)C(C)CCC(OC(=O)C(C)N(C)C)C(C)C(OC(C)=O)C(C)/C=C/N(C)C=O)C/C=C/C(OC)CC(C)C/C=C(\C)C(OC)CCC(C)C(O)C1C)N(C)C (stereo unspecified) | < 0.0001 | 0.00161 |

Tested on: HOP-62 NSCLC
Experiment: inhibition of tumour cell growth, NCI panel, 48 h

| SMILES | GI50 | TGI [µM] |
| --- | --- | --- |
| Nc1nccc2c([N+](=O)[O-])cccc12 | 61.5 mg/L | – |
| CCc1ccc2c(c1)N(CCO)C1=C(C(=O)OC1)C2c1cc(OC)c(OC)c(OC)c1 (stereo unspecified) | 0.207 µM | > 50 |
| Cc1ccc(C2CC(c3ccc(Nc4ccnc5cc(Cl)ccc45)cc3)=NN2C=O)cc1 (stereo unspecified) | > 100 µM | > 100 |
| COCC(C(=O)OC1C/C=C/C=C/C(=O)OC(C(C)C(O)C(C)CCC(OC(=O)C(C)N(C)C)C(C)C(OC(C)=O)C(C)/C=C/N(C)C=O)C/C=C/C(OC)CC(C)C/C=C(\C)C(OC)CCC(C)C(O)C1C)N(C)C (stereo unspecified) | < 0.0001 µM | 0.0013 |

Tested on: BT-549 breast
Experiment: inhibition of tumour cell growth, NCI panel, 48 h

| SMILES | GI50 [µM] | TGI [µM] |
| --- | --- | --- |
| Cn1cnnc1[S-].[Au+].c1ccc([PH+](c2ccccc2)c2ccccc2)cc1 | 1.41 | 2.76 |
| CCc1ccc2c(c1)N(CCO)C1=C(C(=O)OC1)C2c1cc(OC)c(OC)c(OC)c1 (stereo unspecified) | 0.564 | > 15.7 |
| Cc1ccc(C2CC(c3ccc(Nc4ccnc5cc(Cl)ccc45)cc3)=NN2C=O)cc1 (stereo unspecified) | 5.64 | > 100 |
| COCC(C(=O)OC1C/C=C/C=C/C(=O)OC(C(C)C(O)C(C)CCC(OC(=O)C(C)N(C)C)C(C)C(OC(C)=O)C(C)/C=C/N(C)C=O)C/C=C/C(OC)CC(C)C/C=C(\C)C(OC)CCC(C)C(O)C1C)N(C)C (stereo unspecified) | 0.00677 | 0.0915 |

Tested on: RXF 393 renal
Experiment: inhibition of tumour cell growth, NCI panel, 48 h

| SMILES | GI50 | TGI [µM] |
| --- | --- | --- |
| Cn1cnnc1[S-].[Au+].c1ccc([PH+](c2ccccc2)c2ccccc2)cc1 | 1.42 µM | 2.8 |
| Nc1nccc2c([N+](=O)[O-])cccc12 | 87.4 mg/L | – |
| Cc1ccc(C2CC(c3ccc(Nc4ccnc5cc(Cl)ccc45)cc3)=NN2C=O)cc1 (stereo unspecified) | 4.89 µM | > 100 |
| COCC(C(=O)OC1C/C=C/C=C/C(=O)OC(C(C)C(O)C(C)CCC(OC(=O)C(C)N(C)C)C(C)C(OC(C)=O)C(C)/C=C/N(C)C=O)C/C=C/C(OC)CC(C)C/C=C(\C)C(OC)CCC(C)C(O)C1C)N(C)C (stereo unspecified) | < 0.0001 µM | 0.0177 |

Tested on: SNB-75 CNS
Experiment: inhibition of tumour cell growth, NCI panel, 48 h

| SMILES | GI50 | TGI [µM] |
| --- | --- | --- |
| Cn1cnnc1[S-].[Au+].c1ccc([PH+](c2ccccc2)c2ccccc2)cc1 | 1.43 µM | 2.74 |
| Nc1nccc2c([N+](=O)[O-])cccc12 | 55.3 mg/L | – |
| CCc1ccc2c(c1)N(CCO)C1=C(C(=O)OC1)C2c1cc(OC)c(OC)c(OC)c1 (stereo unspecified) | 0.134 µM | > 50 |
| Cc1ccc(C2CC(c3ccc(Nc4ccnc5cc(Cl)ccc45)cc3)=NN2C=O)cc1 (stereo unspecified) | > 100 µM | > 100 |
| COCC(C(=O)OC1C/C=C/C=C/C(=O)OC(C(C)C(O)C(C)CCC(OC(=O)C(C)N(C)C)C(C)C(OC(C)=O)C(C)/C=C/N(C)C=O)C/C=C/C(OC)CC(C)C/C=C(\C)C(OC)CCC(C)C(O)C1C)N(C)C (stereo unspecified) | < 0.0001 µM | 0.0231 |

Tested on: MOLT-4 leukemia
Experiment: inhibition of tumour cell growth, NCI panel, 48 h

| SMILES | GI50 [µM] | TGI [µM] |
| --- | --- | --- |
| CCc1ccc2c(c1)N(CCO)C1=C(C(=O)OC1)C2c1cc(OC)c(OC)c(OC)c1 (stereo unspecified) | 0.486 | > 50 |
| Cc1ccc(C2CC(c3ccc(Nc4ccnc5cc(Cl)ccc45)cc3)=NN2C=O)cc1 (stereo unspecified) | 5.13 | > 100 |
| COCC(C(=O)OC1C/C=C/C=C/C(=O)OC(C(C)C(O)C(C)CCC(OC(=O)C(C)N(C)C)C(C)C(OC(C)=O)C(C)/C=C/N(C)C=O)C/C=C/C(OC)CC(C)C/C=C(\C)C(OC)CCC(C)C(O)C1C)N(C)C (stereo unspecified) | < 0.0001 | > 0.201 |

Tested on: U251 CNS
Experiment: inhibition of tumour cell growth, NCI panel, 48 h

| SMILES | GI50 [µM] | TGI [µM] |
| --- | --- | --- |
| CCc1ccc2c(c1)N(CCO)C1=C(C(=O)OC1)C2c1cc(OC)c(OC)c(OC)c1 (stereo unspecified) | 0.182 | > 50 |
| Cc1ccc(C2CC(c3ccc(Nc4ccnc5cc(Cl)ccc45)cc3)=NN2C=O)cc1 (stereo unspecified) | > 100 | > 100 |
| COCC(C(=O)OC1C/C=C/C=C/C(=O)OC(C(C)C(O)C(C)CCC(OC(=O)C(C)N(C)C)C(C)C(OC(C)=O)C(C)/C=C/N(C)C=O)C/C=C/C(OC)CC(C)C/C=C(\C)C(OC)CCC(C)C(O)C1C)N(C)C (stereo unspecified) | < 0.0001 | 0.154 |

Tested on: HCT-15 colon
Experiment: inhibition of tumour cell growth, NCI panel, 48 h

| SMILES | GI50 [µM] | TGI [µM] |
| --- | --- | --- |
| CCc1ccc2c(c1)N(CCO)C1=C(C(=O)OC1)C2c1cc(OC)c(OC)c(OC)c1 (stereo unspecified) | 0.425 | > 50 |
| Cc1ccc(C2CC(c3ccc(Nc4ccnc5cc(Cl)ccc45)cc3)=NN2C=O)cc1 (stereo unspecified) | 2.78 | > 100 |
| COCC(C(=O)OC1C/C=C/C=C/C(=O)OC(C(C)C(O)C(C)CCC(OC(=O)C(C)N(C)C)C(C)C(OC(C)=O)C(C)/C=C/N(C)C=O)C/C=C/C(OC)CC(C)C/C=C(\C)C(OC)CCC(C)C(O)C1C)N(C)C (stereo unspecified) | < 0.0001 | 0.00194 |

Tested on: NCI-H522 lung
Experiment: inhibition of tumour cell growth, NCI panel, 48 h

| SMILES | GI50 [µM] | TGI [µM] |
| --- | --- | --- |
| CCc1ccc2c(c1)N(CCO)C1=C(C(=O)OC1)C2c1cc(OC)c(OC)c(OC)c1 (stereo unspecified) | 0.0837 | 0.26 |
| COCC(C(=O)OC1C/C=C/C=C/C(=O)OC(C(C)C(O)C(C)CCC(OC(=O)C(C)N(C)C)C(C)C(OC(C)=O)C(C)/C=C/N(C)C=O)C/C=C/C(OC)CC(C)C/C=C(\C)C(OC)CCC(C)C(O)C1C)N(C)C (stereo unspecified) | < 0.0001 | < 0.0001 |

Tested on: LOX IMVI melanoma
Experiment: inhibition of tumour cell growth, NCI panel, 48 h

| SMILES | GI50 [µM] | TGI [µM] |
| --- | --- | --- |
| Cn1cnnc1[S-].[Au+].c1ccc([PH+](c2ccccc2)c2ccccc2)cc1 | 1.35 | 2.71 |
| CCc1ccc2c(c1)N(CCO)C1=C(C(=O)OC1)C2c1cc(OC)c(OC)c(OC)c1 (stereo unspecified) | 0.318 | > 50 |
| Cc1ccc(C2CC(c3ccc(Nc4ccnc5cc(Cl)ccc45)cc3)=NN2C=O)cc1 (stereo unspecified) | 4.11 | > 100 |
| COCC(C(=O)OC1C/C=C/C=C/C(=O)OC(C(C)C(O)C(C)CCC(OC(=O)C(C)N(C)C)C(C)C(OC(C)=O)C(C)/C=C/N(C)C=O)C/C=C/C(OC)CC(C)C/C=C(\C)C(OC)CCC(C)C(O)C1C)N(C)C (stereo unspecified) | < 0.0001 | 0.00377 |
